Test results as given in US20250122160A1, “PROTEIN TYROSINE PHOSPHATASE INHIBITORS AND METHODS OF USE THEREOF” (Calico Life Sciences LLC, priority 0001, published 2025).

Tests used:
[1] = biological target: T1, His tagged PTPN2 (TC45) protein (Homo sapiens, UniProt P17706); assay: Mobility shift assay (MSA) to determine potency of PTPN2 inhibitors; format: biochemical; conditions: 0.5 nM enzyme, 2 μM substrate
T1 construct: made in house
T1 sequence (P17706 with tags, fused parts or gaps isoform P17706-2): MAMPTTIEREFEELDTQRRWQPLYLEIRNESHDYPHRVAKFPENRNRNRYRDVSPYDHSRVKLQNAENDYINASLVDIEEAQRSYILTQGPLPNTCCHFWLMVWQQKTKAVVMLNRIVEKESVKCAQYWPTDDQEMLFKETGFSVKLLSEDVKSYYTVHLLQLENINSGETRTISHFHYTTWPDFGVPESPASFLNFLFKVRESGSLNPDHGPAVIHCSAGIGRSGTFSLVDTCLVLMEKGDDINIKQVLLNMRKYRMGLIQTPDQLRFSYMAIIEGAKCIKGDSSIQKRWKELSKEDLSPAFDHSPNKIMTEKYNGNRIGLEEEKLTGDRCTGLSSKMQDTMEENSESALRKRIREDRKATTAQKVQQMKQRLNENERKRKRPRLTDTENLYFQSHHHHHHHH
Summary of the method: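 His-tagged human PTPN2 (TC45), 0.5 nM, preincubated 10 min at room temperature with compound (12-point, 1:3 dilutions) in HEPES pH 7.5 buffer with EGTA, EDTA, Tween 20 and DTT. Then 2 μM OG488-labelled phospho-insulin-receptor peptide was added for 10 min and quenched. % conversion was read by mobility shift, and IC50 came from % inhibition.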

[2] = biological target: T2, His tagged full-length PTPN1 protein (Homo sapiens, UniProt P18031); assay: Mobility shift assay (MSA) to determine potency of PTPN1 inhibitors; format: biochemical; conditions: 0.5 nM enzyme, 2 μM substrate
T2 construct: made in house
T2 sequence (P18031 with tags, fused parts or gaps): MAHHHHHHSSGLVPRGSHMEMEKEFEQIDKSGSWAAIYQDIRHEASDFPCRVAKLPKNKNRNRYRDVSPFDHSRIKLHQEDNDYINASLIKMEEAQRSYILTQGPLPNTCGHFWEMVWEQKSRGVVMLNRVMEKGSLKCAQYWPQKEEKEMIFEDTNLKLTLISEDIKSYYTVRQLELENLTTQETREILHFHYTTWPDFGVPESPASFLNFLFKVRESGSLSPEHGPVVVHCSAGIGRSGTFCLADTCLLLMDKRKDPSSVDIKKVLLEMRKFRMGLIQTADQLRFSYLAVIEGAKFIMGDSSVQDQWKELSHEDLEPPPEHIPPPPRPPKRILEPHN
Summary of the method: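 Readout is microfluidic mobility shift (ex 488/em 530 nm) of a 2 μM OG488-labelled pTyr insulin-receptor peptide after a 10 min room-temperature reaction, following 10 min enzyme–compound preincubation. Enzyme: 0.5 nM full-length His-tagged PTPN1 in HEPES pH 7.5 buffer. IC50 fitted from % inhibition at 12 concentrations (1:3 steps).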

Structure (SMILES)	IC50 [1] [nM]	IC50 [2] [nM]
[2H]C1([2H])Cc2cc(O)c(N3CC(=O)NS3(=O)=O)c(F)c2C([2H])([2H])[C@@]1([2H])NCCC(C)C (single isomer, unassigned) [Compound 370]	10 to 100	> 100
O=C1CN(c2c(O)cc3c(c2F)C[C@H](NCC2CCCOC2)CC3)S(=O)(=O)N1 (stereo partly drawn) [Compound 352, 5-[(7R)-1-fluoro-3-hydroxy-7-{[(oxan-3-yl)methyl]amino}-5,6,7,8-tetrahydronaphthalen-2-yl]-1λ^6,2,5-thiadiazolidine-1,1,3-trione]	1 to 10	1 to 10
C[C@H](N)CN1CCc2cc(O)c(N3CC(=O)NS3(=O)=O)c(F)c2C1 [Compound 245]	10 to 100	10 to 100
Cc1n[nH]c(C)c1CN1CCc2cc(O)c(N3CC(=O)NS3(=O)=O)c(F)c2C1 [Compound 212]	> 100	> 100
O=C1CN(c2c(O)cc3c(c2F)C[C@H](NCCC2CCOC2)CC3)S(=O)(=O)N1 (stereo partly drawn) [Compound 356, 5-[(7R)-1-fluoro-3-hydroxy-7-{[2-(oxolan-3-yl)ethyl]amino}-5,6,7,8-tetrahydronaphthalen-2-yl]-1λ^6,2,5-thiadiazolidine-1,1,3-trione]	< 1	1 to 10
CC(C)(C)CNC(=O)N1CCc2cc(O)c(N3CC(=O)NS3(=O)=O)c(F)c2C1 [Compound 277]	1 to 10	10 to 100
Cc1c(CNC(=O)N2CCc3cc(O)c(N4CC(=O)NS4(=O)=O)c(F)c3C2)cnn1C [Compound 271]	10 to 100	10 to 100
CC(C)CCC(=O)N1CCc2cc(O)c(N3CC(=O)NS3(=O)=O)c(F)c2C1 [Compound 144]	1 to 10	10 to 100
O=C1CN(c2c(O)cc3c(c2F)C[C@H](NCC2CC(c4ccccc4)C2)CO3)S(=O)(=O)N1 (stereo partly drawn) [Compound 385, 5-[(3S)-5-fluoro-7-hydroxy-3-{[(3-phenylcyclobutyl)methyl]amino}-3,4-dihydro-2H-1-benzopyran-6-yl]-1λ^6,2,5-thiadiazolidine-1,1,3-trione]	1 to 10	10 to 100
Cc1nn(CCCC(C)(C)C#N)c(C)c1CN1CCc2cc(O)c(N3CC(=O)NS3(=O)=O)c(F)c2C1 [Compound 227]	> 100	> 100
NC[C@H]1Cc2cc(O)c(N3CC(=O)NS3(=O)=O)c(F)c2C1 (single isomer, unassigned) [Compound 407]	10 to 100	10 to 100
CCCCC(=N)N1CCc2cc(O)c(N3CC(=O)NS3(=O)=O)c(F)c2C1 [Compound 158]	10 to 100	> 100
N[C@@H]1COc2cc(O)c(N3CC(=O)NS3(=O)=O)c(F)c2C1 [Compound 326, 5-[(3S)-3-amino-5-fluoro-7-hydroxy-3,4-dihydro-2H-1-benzopyran-6-yl]-1λ^6,2,5-thiadiazolidine-1,1,3-trione]	10 to 100	10 to 100
Cc1nn(CC(F)F)c(C)c1CCN1Cc2c(cc(O)c(N3CC(=O)NS3(=O)=O)c2F)C(F)(F)C1 [Compound 226]	10 to 100	10 to 100
O=C1CN(c2c(O)cc3c(c2F)C[C@H](NCC2CCCCO2)CC3)S(=O)(=O)N1 (stereo partly drawn) [Compound 350, 5-[(7R)-1-fluoro-3-hydroxy-7-{[(oxan-2-yl)methyl]amino}-5,6,7,8-tetrahydronaphthalen-2-yl]-1λ^6,2,5-thiadiazolidine-1,1,3-trione]	1 to 10	10 to 100
Cc1c(CCN2CCc3cc(O)c(N4CC(=O)NS4(=O)=O)c(F)c3C2)cnn1C [Compound 257]	1 to 10	1 to 10
CC(C)(CCN)CCN[C@@H]1CCc2cc(O)c(N3CC(=O)NS3(=O)=O)c(F)c2C1 [Compound 374, 5-{(7R)-7-[(5-amino-3,3-dimethylpentyl)amino]-1-fluoro-3-hydroxy-5,6,7,8-tetrahydronaphthalen-2-yl}-1λ^6,2,5-thiadiazolidine-1,1,3-trione]	1 to 10	10 to 100
O=C1CN(c2c(O)cc3c(c2F)CN(CCC2CCOCC2)CC3)S(=O)(=O)N1 [Compound 214]	10 to 100	10 to 100
O=C1CN(c2c(O)cc3c(c2F)C[C@H](NCCCc2ccccc2)CO3)S(=O)(=O)N1 [Compound 386, 5-{(3S)-5-fluoro-7-hydroxy-3-[(3-phenylpropyl)amino]-3,4-dihydro-2H-1-benzopyran-6-yl}-1λ^6,2,5-thiadiazolidine-1,1,3-trione]	10 to 100	10 to 100
N[C@@H]1CCc2cc(O)c(N3CC(=O)NS3(=O)=O)c(F)c2C1 [Compound 198]	10 to 100	> 100

Structure (SMILES)	IC50 [1] [nM]	IC50 [2] [nM]
O=C1CN(c2c(O)cc3c(c2F)CN(CCCO)CC3)S(=O)(=O)N1 [Compound 244]	10 to 100	10 to 100
CC(C)(O)CCN1CCc2cc(O)c(N3CC(=O)NS3(=O)=O)c(F)c2C1 [Compound 170]	10 to 100	> 100
CC(O)CCN[C@@H]1CCc2cc(O)c(N3CC(=O)NS3(=O)=O)c(F)c2C1 (stereo partly drawn) [Compound 369, 5-{(7R)-1-fluoro-3-hydroxy-7-[(3-hydroxybutyl)amino]-5,6,7,8-tetrahydronaphthalen-2-yl}-1λ^6,2,5-thiadiazolidine-1,1,3-trione]	1 to 10	10 to 100
O=C1CN(c2c(O)cc3c(c2F)CN(CCCC2CCOCC2)CC3)S(=O)(=O)N1 [Compound 196]	10 to 100	10 to 100
O=C1CC[C@@H](CN2CCc3cc(O)c(N4CC(=O)NS4(=O)=O)c(F)c3C2)N1 [Compound 324]	1 to 10	10 to 100
CC(=O)NC1CCc2cc(O)c(N3CC(=O)NS3(=O)=O)c(F)c2C1 (centres unmarked) [Compound 322]	10 to 100	10 to 100
C[C@@H]1C[C@@H](N)Cc2c1cc(O)c(N1CC(=O)NS1(=O)=O)c2F [Compound 397, 5-[(5R,7R)-7-amino-1-fluoro-3-hydroxy-5-methyl-5,6,7,8-tetrahydronaphthalen-2-yl]-1λ^6,2,5-thiadiazolidine-1,1,3-trione]	> 100	> 100
Cc1nn(C)c(C)c1CCN1CCc2cc(O)c(N3CC(=O)NS3(=O)=O)c(F)c2C1 [Compound 209]	1 to 10	1 to 10
CC(C)NCCN1CCc2cc(O)c(N3CC(=O)NS3(=O)=O)c(F)c2C1 [Compound 164]	10 to 100	> 100
COCCCNC(=O)N1CCc2cc(O)c(N3CC(=O)NS3(=O)=O)c(F)c2C1 [Compound 278]	10 to 100	10 to 100
Cc1n[nH]c(C)c1CCN1Cc2c(cc(O)c(N3CC(=O)NS3(=O)=O)c2F)C(F)(F)C1 [Compound 320]	> 100	> 100
O=C1CN(c2c(O)cc3c(c2F)CNCC3)S(=O)(=O)N1 [Compound 143, 5-(8-fluoro-6-hydroxy-1,2,3,4-tetrahydroisoquinolin-7-yl)-1λ^6,2,5-thiadiazolidine-1,1,3-trione]	10 to 100	> 100
Cc1nn(C(F)F)c(C)c1CCN1CCc2cc(O)c(N3CC(=O)NS3(=O)=O)c(F)c2C1 [Compound 238]	1 to 10	1 to 10
O=C1CN(c2c(O)cc3c(c2F)CN(CCN2CCCC2)CC3)S(=O)(=O)N1 [Compound 193]	> 100	10 to 100
CC(C)CCNC(=O)N1CCc2cc(O)c(N3CC(=O)NS3(=O)=O)c(F)c2C1 [Compound 205]	1 to 10	10 to 100
O=C1CN(c2c(O)cc3c(c2F)CC(NCc2ccccn2)CC3)S(=O)(=O)N1 (centres unmarked) [Compound 155]	10 to 100	10 to 100
CC(C)OCCCN1CCc2cc(O)c(N3CC(=O)NS3(=O)=O)c(F)c2C1 [Compound 251]	10 to 100	10 to 100
N[C@@H]1CCc2cc(O)c(N3CC(=O)NS3(=O)=O)c(F)c2[C@H]1O [Compound 401, 5-[(7R,8R)-7-amino-1-fluoro-3,8-dihydroxy-5,6,7,8-tetrahydronaphthalen-2-yl]-1λ^6,2,5-thiadiazolidine-1,1,3-trione]	> 100	> 100
C[C@H]1Cc2c(cc(O)c(N3CC(=O)NS3(=O)=O)c2F)CN1 [Compound 289]	10 to 100	> 100
CC(C)(C)c1ccc(CCCN2CCc3cc(O)c(N4CC(=O)NS4(=O)=O)c(F)c3C2)cc1 [Compound 301]	10 to 100	> 100
